Laboratory results: US8318725B2, “Aryl indolyl sulfonamide compounds and their use as 5-HT6 ligands” (Suven Life Sciences Limited, priority 2008, dated 2012)
Like-named read-outs stand apart in the source and are kept apart here.

Tests used:
Male Wister rats = assay: Object recognition task model (NORT); type: in vivo; settings: for NORT Discriminative Index (DI), treatment: p.o., vehicle value in brackets; for NORT Inference: at the dose tested (10 or 30 mg/kg, p.o.)
Experimental: Object Recognition Task Model
The cognition-enhancing properties of compounds of this invention were estimated using a model of animal cognition: the object recognition task model.
Male Wister rats (230-280 grams) obtained from N. I. N. (National Institute of Nutrition, Hyderabad, India) were used as experimental animals. Four animals were housed in each cage. Animals were kept on 20% food deprivation before one day and given water ad libitum throughout the experiment and-maintained on a 12 hours light/dark cycle. Also the rats were habituated to individual arenas for 1 hour in the absence of any objects.
One group of 12 rats received vehicle (1 mL/Kg) orally and another set of animals received compound of the formula (I) either orally or i.p., before one hour of the familiar (T1) and choice trial (T2).
The experiment was carried out in a 50×50×50 cm open field made up of acrylic. In the familiarilation phase, (T1), the rats were placed individually in the open field for 3 minutes, in which two identical objects (plastic bottles, 12.5 cm height×5.5 cm diameter) covered in yellow masking tape alone (a1 and a2) were positioned in two adjacent corners, 10 cm. from the walls. After 24 hours of the (T1) trial for long-term memory test, the same rats were placed in the same arena as they were, placed in T1 trial. Choice phase (T2) rats were allowed to explore the open field for 3 minutes in presence of one familiar object (a3) and one novel object (b) (Amber color glass'bottle, 12 cm high and 5 cm in diameter). Familiar objects presented similar textures, colors and sizes. During the T1 and T2 trial, explorations of each object (defined as sniffing, licking, chewing or having moving vibrissae whilst directing the nose towards the object at a distance of less than 1 cm) were recorded separately by stopwatch. Sitting on an object was not regarded as exploratory activity, however, it was rarely observed. T1 is the total time spent exploring the familiar objects (a1+a2). T2 is the total time spent exploring the familiar object and novel object (a3+b).
The object recognition test was performed as described by Ennaceur, A., Delacour, J., 1988, A new one-trial test for neurobiological studies of memory in rats—Behavioral data, Behay. Brain Res., 31, 47-59.
Some representative compounds have shown positive effects indicating the increased novel object recognition viz; increased exploration time with novel object and higher discrimination index.

Human 5-HT6 receptor = biological target: T1, Human 5-HT6 receptor (Homo sapiens, UniProt P50406); assay: Binding assay for human 5-HT6 receptor ([3H] LSD radioligand); settings: [3H] LSD 1.5 nM; human recombinant receptor in HEK293 cells
T1 construct: expressed in transfected cells; host or cells: HEK293
T1 sequence (P50406 whole entry): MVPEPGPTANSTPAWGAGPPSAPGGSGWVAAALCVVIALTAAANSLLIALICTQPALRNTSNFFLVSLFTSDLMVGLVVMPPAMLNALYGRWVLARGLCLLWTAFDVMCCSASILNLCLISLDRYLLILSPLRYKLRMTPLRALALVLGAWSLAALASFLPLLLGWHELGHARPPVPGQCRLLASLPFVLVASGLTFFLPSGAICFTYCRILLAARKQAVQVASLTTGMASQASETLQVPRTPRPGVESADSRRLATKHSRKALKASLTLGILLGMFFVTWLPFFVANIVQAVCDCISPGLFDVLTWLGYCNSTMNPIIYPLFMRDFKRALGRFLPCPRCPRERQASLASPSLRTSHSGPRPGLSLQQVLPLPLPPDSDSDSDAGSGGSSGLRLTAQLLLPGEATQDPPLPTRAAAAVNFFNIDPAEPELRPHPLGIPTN
Experimental: Binding Assay for Human 5-HT6 Receptor
Compounds can be tested according to the following the procedures. Materials and Methods:
Receptor source: Human recombinant expressed in HEK293 cells
Radioligand: [^3H] LSD (60-80 Ci/mmol)
Final ligand concentration—[1.5 nM]
Non-specific determinant: Methiothepin mesylate—[0.1 μM]
Reference compound: Methiothepin mesylate
Positive control: Methiothepin mesylate
Reactions were carried out in […] TRIS-HCl (pH 7.4) containing 10 μM MgCl2, 0.5 mM EDTA for 60 minutes at 37° C. The reaction was terminated by rapid vacuum filtration onto glass fiber filters. Radioactivity trapped onto the filters was determined and compared to control values in order to ascertain any interactions of test compound(s) with the cloned serotonin 5-HT6binding site.
Literature Reference: Monsma F. J. Jr., et al., Molecular Cloning and Expression of Novel Serotonin Receptor with High Affinity for Tricyclic Psychotropic Drugs. Mol. Pharmacol. (43): 320-327 (1993).

rats = assay: Water maze, scopolamine induced reversal; type: in vivo
Experimental: The water maze apparatus consisted of a circular pool (1.8 m diameter, 0.6 m high) constructed in black Perspex (TSE systems, Germany) filled with water (24±2° C.) and positioned underneath a wide-angled video camera to track animal. The 10 cm^2 perspex platform, lying 1 cm below the water surface, was placed in the centre of one of the four imaginary quadrants, which remained constant for all rats. The black Perspex used in the construction of the maze and platform offered no intramaze cues to guide escape behavior. By contrast, the training room offered several strong extramaze visual cues to aid the formation of the spatial map necessary for escape, learning. An automated tracking system, [Videomot 2 (5.51), TSE systems, Germany] was employed. This program analyzes video images acquired via a digital camera and an image acquisition board that determined path length, swim speed and the number of dutation of swim time spent in each quadrant of the water maze.

[1] = Rodent brain penetration study; type: in vivo, Male Wister rats; settings: brain homogenate and plasma; Wistar/Male rat, 10 mg/kg, water, Oral (as in table); read-out: Steady State Brain Penetration (Cb/Cp)
[2] = Rodent pharmacokinetic study; type: in vivo, Male wistar rats; settings: plasma, Wistar/Male rat, 10 mg/kg; for bioavailability: oral vs intravenous, read-out: Bioavailab; for Cmax / Tmax / half-life / AUC: water; for AUC: read-out: AUC1
Experimental: Rodent Pharmacokinetic Study Male wistar rats (230-280 grams) obtained from NIN (National Institute of Nutrition, Hyderabad, India) were used as an experimental animal. Three to five animals were housed in each cage. Animals were kept fasted over night and maintained on a 12 hours light/dark cycle. Three rats were dosed NCE (10 mg/Kg) orally and intravenously on day 0 and day 2. At each time point blood was collected by jugular vein. Plasma was stored frozen at −20° C. until analysis. The concentrations of the NCE compound in plasma were determined using LC-MS/MS method. Schedule time points: Pre dose 0.25, 0.5, 1, 1.5, 2, 3, 4, 6, 8, 10, 12 and 24 hours after dosing (n=3). The NCE compounds were quantified in plasma by validated LC-MS/MS method using solid phase extraction technique. NCE compounds were quantified in the calibration range of 2-2000 ng/mL in plasma. Study samples were analyzed using calibration samples in the batch and quality control samples spread across the batch. Pharmacokinetic parameters Cmax, Tmax, AUCt, AUCinf, half life, volume of distribution, clearance, mean residence time and thereby oral bioavailability were calculated by non-compartmental model using software WinNonlin version 5.1.

[3] = tested on: animal models for schizophrenia; settings: literature statement; cited from earlier work
5-HT6 receptor = settings: literature statement; cited from earlier work

| Compound | Ki (Human 5-HT6 receptor) | Kp [1] | bioavailability [2] | Cmax ([2]; Intravenous) | Tmax ([2]; Intravenous) | half-life ([2]; Intravenous) | AUC ([2]; Intravenous) | Cmax ([2]; Oral) | Tmax ([2]; Oral) | half-life ([2]; Oral) | AUC ([2]; Oral) | melting point | NORT Discriminative Index (DI), treatment (Male Wister rats; 10 mg/kg) | NORT Inference (Male Wister rats) | Scopolamine Induced Reversal (rats) | NORT Discriminative Index (DI), treatment (Male Wister rats; 30 mg/kg) | Activity in animal tests related to positive or negative symptoms of schizophrenia [3] | Affinity for the 5-HT6 receptor (5-HT6 receptor) |
| --- | --- | --- | --- | --- | --- | --- | --- | --- | --- | --- | --- | --- | --- | --- | --- | --- | --- | --- |
| COc1ccc(NS(=O)(=O)c2sc3ccc(Cl)cc3c2C)cc1N1CCNCC1 [SB-271046, 5-Chloro-N-(4-methoxy-3-piperazin-1-ylphenyl)-3-methyl-2-benzothiophenesulfonamide] |  |  |  |  |  |  |  |  |  |  |  |  |  |  |  |  | inactive |  |
| CN(C)CCC=C1c2ccccc2CCc2ccccc21 [amitriptyline] |  |  |  |  |  |  |  |  |  |  |  |  |  |  |  |  |  | high affinity |
| CN1CCN2c3ccccc3Cc3ccccc3C2C1 (stereo not drawn) [mianserin] |  |  |  |  |  |  |  |  |  |  |  |  |  |  |  |  |  | high affinity |

The next lines start with results.

| Ki (Human 5-HT6 receptor) | Kp [1] | bioavailability [2] | Cmax ([2]; Intravenous) | Tmax ([2]; Intravenous) | half-life ([2]; Intravenous) | AUC ([2]; Intravenous) | Cmax ([2]; Oral) | Tmax ([2]; Oral) | half-life ([2]; Oral) | AUC ([2]; Oral) | melting point | Compound | NORT Discriminative Index (DI), treatment (Male Wister rats; 10 mg/kg) | NORT Inference (Male Wister rats) | Scopolamine Induced Reversal (rats) | NORT Discriminative Index (DI), treatment (Male Wister rats; 30 mg/kg) | Activity in animal tests related to positive or negative symptoms of schizophrenia [3] | Affinity for the 5-HT6 receptor (5-HT6 receptor) |
| --- | --- | --- | --- | --- | --- | --- | --- | --- | --- | --- | --- | --- | --- | --- | --- | --- | --- | --- |
| 1.91 nM |  |  |  |  |  |  |  |  |  |  |  | CN1CCN(Cc2cccc(S(=O)(=O)n3ccc4ccccc43)c2)CC1 [Example 8, 1-[3-(4-Methylpiperazin-1-ylmethyl)benzenesulfonyl]-1H-indole] | 0.58 (0.45) | Active | ≧30 mg/kg, p.o |  |  |  |
| 7.01 nM | 2.03 ± 0.42 | 30 ± 7% | 4320 ± 1680 ng/mL | 4.8 min | 161 ± 90.6 min | 5130 ± 1750 ng·h/mL | 1380 ± 427 ng/mL | 22.8 ± 10.8 min | 471 ± 157 min | 3190 ± 1750 ng·h/mL |  | Cc1ccc(S(=O)(=O)n2ccc3ccccc32)cc1CN1CCN(C)CC1.Cl.Cl [Example 22, 1-[4-methyl-3-(4-methylpiperazin-1-ylmethyl)benzenesulfonyl]-1H-indole dihydrochloride] | 0.57 (0.54) | Active | >30 mg/kg, p.o |  |  |  |
| 3.96 nM | 0.53 ± 0.13 | 14 ± 10% | 4680 ± 617 ng/mL | 4.8 min | 375 ± 21 min | 4070 ± 888 ng·h/mL | 749 ± 836 ng/mL | 30 ± 25.8 min | 191 ± 103 min | 1170 ± 1050 ng·h/mL | 250.13 °C | CCN1CCN(Cc2cc(S(=O)(=O)n3ccc4ccccc43)ccc2C)CC1.Cl.Cl [Example 23, 1-[4-methyl-3-(4-ethylpiperazin-1-ylmethyl)benzenesulfonyl]-1H-indole dihydrochloride] |  | Active | ≧30 mg/kg, p.o | 0.58 (0.49) |  |  |
| 5.45 nM | 1.61 ± 0.39 | 10 ± 6% | 481 ± 331 ng/mL | 4.8 min | 350 ± 133 min | 808 ± 156 ng·h/mL | 106 ± 1 ng/mL | 22.8 ± 10.8 min | 104 ± 33.6 min | 342 ± 152 ng·h/mL | 216.9 to 218.7 °C | Cc1cn(S(=O)(=O)c2ccc(Cl)c(CN3CCN(C)CC3)c2)c2ccccc12.Cl.Cl [Example 35, 1-[4-Chloro-3-(4-methylpiperazin-1-ylmethyl)benzenesulfonyl]-3-methyl-1H-indole dihydrochloride] |  | Active | >30 mg/kg, p.o | 0.63 (0.49) |  |  |
